pEC50: −log10 of the molar value. Starred links: 1 amine or outer side, 2 acyl side, 3 side chain; linkers in the order of their positions; H or OH if unused. Non-standard residues stand in square brackets, D forms with d. Residues, ends and D or L forms follow the SMILES beside them. *: point of attachment. NH(1S,2S-2-CONH2-cPent) = NC(=O)[C@H]1CCC[C@@H]1N*; β3hW = N[C@H](CC(=O)O)Cc1c[nH]c2ccccc12; X12 = O=C([C@H]1CCC[C@@H]1N[*:1])[*:2]; X13 = O=C([C@H]1CNC[C@@H]1N[*:1])[*:2]; hArg = N=C(N)NCCCC[C@H](N)C(=O)O; β3hE = N[C@@H](CCC(=O)O)CC(=O)O; β3hF = N[C@H](CC(=O)O)Cc1ccccc1; X14 = O=C(C1CCCC1N[*:1])[*:2]; β3hK = NCCCC[C@H](N)CC(=O)O; β3hM = CSCC[C@H](N)CC(=O)O; β3hD = NC(CC(=O)O)CC(=O)O; β3hS = N[C@@H](CO)CC(=O)O

For one experiment, the target named is T1, WT human PTHR-1 (Homo sapiens, UniProt Q03431).
T1 construct: bioactivity of the resulting compound in full-length hPTHR-1 and a truncated version; expressed in transfected cells
T1 sequence (Q03431 27-593): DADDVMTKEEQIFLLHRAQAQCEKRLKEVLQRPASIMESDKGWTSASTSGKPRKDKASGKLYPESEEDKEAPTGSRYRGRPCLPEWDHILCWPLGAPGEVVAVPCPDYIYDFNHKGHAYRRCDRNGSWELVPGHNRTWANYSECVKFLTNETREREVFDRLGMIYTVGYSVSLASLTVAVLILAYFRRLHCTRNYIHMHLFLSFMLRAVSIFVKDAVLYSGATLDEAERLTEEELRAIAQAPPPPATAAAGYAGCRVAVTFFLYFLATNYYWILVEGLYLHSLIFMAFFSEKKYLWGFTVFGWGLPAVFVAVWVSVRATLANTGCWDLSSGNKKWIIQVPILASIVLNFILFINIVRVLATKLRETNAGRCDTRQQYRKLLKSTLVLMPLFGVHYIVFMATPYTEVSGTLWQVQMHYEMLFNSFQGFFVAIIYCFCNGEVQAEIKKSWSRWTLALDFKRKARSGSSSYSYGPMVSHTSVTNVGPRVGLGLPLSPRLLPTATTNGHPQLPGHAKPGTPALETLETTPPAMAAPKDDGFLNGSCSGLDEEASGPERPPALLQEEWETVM
The experiment is described as follows: cAMP GloSensor dose-response in GP-2.3 cells expressing human PTHR-1. It is filed as cell-based. Conditions: for cAMP (hPTHR-1) Max: luminescence counts per second relative to PTH(1-34); for cAMP (hPTHR-1) Max / Max: 12-16 minutes after ligand addition; for Max: Table 6, mean ± SEM; for agonist activity at hPTHR-1 (cAMP response), in words: maximum cAMP response compared with PTH(1-34). How it is done: FIGS. 8A, 8B, and 8C constitute a series of graphs depicting cAMP responses in GP-2.3 cells expressing wild-type human parathyroid hormone receptor 1 (PTHR-1-WT). […] Data are means (±SEM) of n>4 experiments, each performed in duplicate.
(§1) For cAMP dose-response assays, monolayers of confluent HEK 293 cells were pre-incubated with buffer containing d-luciferin (0.5 mM) in 96 well plates at room temperature until a stable baseline level of luminescence was established (30 min). Varying concentrations of agonist were then added, and the time course of luminescence response was recorded using a Perkin Elmer plate reader following α/β-peptide addition.

A further experiment deals with T2, R^0 form of human PTHR-1 (Homo sapiens, UniProt Q03431).
T2 construct: expressed in transfected cells; host or cells: COS-7
T2 sequence (Q03431 27-593): T1 sequence (Q03431 27-593)
The experiment is described as follows: Radio-ligand competition binding to R^0 form of human PTHR-1 (COS-7 membranes, 125I-PTH(1-34) tracer, GTPγS). From the text:
Data are means (±SEM) of n≥4 experiments, each performed in duplicate.

The next experiment deals with T3, WT rat PTHR-1 (Rattus norvegicus, UniProt P25961).
T3 construct: expressed in transfected cells
T3 sequence (P25961 27-591): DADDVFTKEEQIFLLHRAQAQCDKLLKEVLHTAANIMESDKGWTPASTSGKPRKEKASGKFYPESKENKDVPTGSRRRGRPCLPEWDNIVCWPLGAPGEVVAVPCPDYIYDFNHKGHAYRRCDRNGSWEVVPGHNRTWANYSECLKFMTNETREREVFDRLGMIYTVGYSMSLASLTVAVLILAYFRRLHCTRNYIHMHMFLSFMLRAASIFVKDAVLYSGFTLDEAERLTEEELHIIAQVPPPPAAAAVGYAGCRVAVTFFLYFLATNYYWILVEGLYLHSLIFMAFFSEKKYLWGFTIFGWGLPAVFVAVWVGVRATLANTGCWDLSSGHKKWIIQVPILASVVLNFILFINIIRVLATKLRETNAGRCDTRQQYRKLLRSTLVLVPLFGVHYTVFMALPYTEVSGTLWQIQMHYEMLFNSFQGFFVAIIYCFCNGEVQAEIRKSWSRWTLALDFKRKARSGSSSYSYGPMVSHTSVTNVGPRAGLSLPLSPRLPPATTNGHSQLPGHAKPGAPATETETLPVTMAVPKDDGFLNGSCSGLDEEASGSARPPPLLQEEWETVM
Kind of experiment: cAMP GloSensor dose-response in GR-35 cells expressing rat PTHR-1. As to conditions: Table 7; GR-35 cells, 12-16 minutes after ligand addition; mean ± SEM. It counts as cell-based. As to the method:
FIGS. 9A, 9B, and 9C constitute a series of graphs depicting cAMP responses in GR-35 cells expressing rat PTHR-1-WT. […] Data are means (±SEM) of n>4 experiments, each performed in duplicate.
as §1

The target of the next experiment is T4, PTHR (Homo sapiens, UniProt Q03431).
T4 construct: expressed in transfected cells
T4 sequence (Q03431 27-593): T1 sequence (Q03431 27-593)
Kind of experiment: cAMP induction potency, N-terminal modifications and cyclic constraints (Tables 9, 10, 13). It counts as cell-based.

By pEC50 is commonly meant −log10 of the EC50, conventionally taken in molar units. One may read the IC50 as the concentration at which inhibition is half-maximal. For `CC[C@H](C)[C@H](NC(=O)[C@H](CCC(=O)O)NC(=O)[C@H](CO)NC(=O)[C@@H](NC(=O)[C@@H](N)CO)C(C)C)C(=O)N[C@@H](CCC(N)=O)C(=O)N[C@@H](CC(C)C)C(=O)N[C@@H](CCSC)C(=O)N[C@@H](Cc1c[nH]cn1)C(=O)N[C@@H](CC(N)=O)C(=O)N[C@@H](CC(C)C)C(=O)NCC(=O)N[C@@H](CCCCN)C(=O)N[C@@H](Cc1c[nH]cn1)C(=O)N[C@@H](CC(C)C)C(=O)N[C@@H](CC(N)=O)C(=O)N[C@@H](CO)C(=O)N[C@@H](CCSC)C(=O)N[C@@H](CCC(=O)O)C(=O)N[C@@H](CCCNC(=N)N)C(=O)N[C@H](C(=O)N[C@@H](CCC(=O)O)C(=O)N[C@@H](Cc1c[nH]c2ccccc12)C(=O)N[C@H](CC(=O)N[C@@H](CCCNC(=N)N)C(=O)N[C@@H](CCCCN)C(=O)N[C@@H](CCCCN)C(=O)N[C@H](CC(=O)N[C@@H](CCC(N)=O)C(=O)N[C@@H](CC(=O)O)C(=O)N[C@H](C(=O)N[C@@H](CCC(N)=O)CC(=O)N[C@@H](CC(N)=O)C(=O)N[C@@H](Cc1ccccc1)C(N)=O)C(C)C)CC(C)C)CC(C)C)C(C)C` [B3], the pEC50 on WT human PTHR-1 (Table 1, GP-2.3 cells, read-out: cAMP (hPTHR-1) EC50) is 9.96. For the same molecule, the “cAMP (hPTHR-1) Max” value on WT human PTHR-1 (Table 1) is 1.08. Moreover, the Max is on record as 234 ± 16 luminescence counts per second × 10^−3 at WT human PTHR-1 (GP-2.3 cells) and 69 ± 78 luminescence counts per second × 10−3 on WT rat PTHR-1. Moreover, the “agonist activity at hPTHR-1 (cAMP response), in words” value on WT human PTHR-1 is recorded as “full agonists of hPTHR-1”. Further, the IC50 on R^0 form of human PTHR-1 (Table 1, COS-7 membranes, 125I-PTH(1-34) tracer, GTPγS, read-out: R^0 IC50, nM, Binding (hPTHR-1)) turned out to be 80 nM.
For orientation: EC50 means the midpoint of the concentration-response curve. As to `CSCC[C@H](NC(=O)[C@H]1CCC[C@@H]1NC(=O)[C@H](CCC(N)=O)NC(=O)[C@H]1CCC[C@@H]1NC(=O)[C@H](CCC(=O)O)NC(=O)[C@H](CO)NC(=O)[C@@H](NC(=O)C[C@@H](N)CO)C(C)C)C(=O)N[C@@H](Cc1c[nH]cn1)C(=O)N[C@@H](CC(N)=O)C(=O)N[C@@H](CC(C)C)C(=O)NCC(=O)N[C@@H](CCCCN)C(=O)N[C@H]1CCC[C@@H]1C(=O)N[C@@H](CC(C)C)C(=O)N[C@@H](CC(N)=O)C(=O)N[C@@H](CO)C(=O)N[C@H]1CCC[C@@H]1C(=O)N[C@@H](CCC(=O)O)C(=O)N[C@@H](CCCNC(=N)N)C(=O)N[C@H](C(=O)N[C@H]1CNC[C@@H]1C(=O)N[C@@H](Cc1c[nH]c2ccccc12)C(=O)N[C@@H](CC(C)C)C(=O)N[C@@H](CCCNC(=N)N)C(=O)N[C@H]1CNC[C@@H]1C(=O)N[C@@H](CCCCN)C(=O)N[C@@H](CC(C)C)C(=O)N[C@@H](CCC(N)=O)C(=O)N[C@H]1CCC[C@@H]1C(=O)N[C@H](C(=O)N[C@@H](Cc1c[nH]cn1)C(=O)N[C@@H](CC(N)=O)C(=O)N[C@H]1CCC[C@@H]1C(N)=O)C(C)C)C(C)C` [FcycD6_β^3Ser1, ACPC(5, 7, SVSEXQXMHNLGKXLNSXERVZWLRZKLQXVHNX-NH2] (H-[β3hS]VSE[X12]Q[X12]MHNLGK[X12]LNS[X12]ERV[X13]WLR[X13]KLQ[X12]VHN-{NH(1S,2S-2-CONH2-cPent)}; N-terminus assumed), the EC50 at PTHR (Table 13, non M-PTH analogs, read-out: cAMP, EC50 nM ± SEM) was found to be 0.79 nM.
`CC[C@H](C)[C@H](NC(=O)[C@H](CCC(=O)O)NC(=O)[C@H](CO)NC(=O)[C@@H](NC(=O)[C@@H](N)CO)C(C)C)C(=O)N[C@@H](CCC(N)=O)C(=O)N[C@@H](CC(C)C)C(=O)N[C@@H](CCSC)C(=O)N[C@@H](Cc1c[nH]cn1)C(=O)N[C@@H](CC(N)=O)C(=O)N[C@@H](CC(C)C)C(=O)NCC(=O)N[C@@H](CCCCN)C(=O)N[C@@H](Cc1c[nH]cn1)C(=O)N[C@@H](CC(C)C)C(=O)N[C@@H](CC(N)=O)C(=O)N[C@@H](CO)C(=O)N[C@@H](CCSC)C(=O)N[C@@H](CCC(=O)O)C(=O)N[C@@H](CCCNC(=N)N)C(=O)N[C@H](C(=O)N[C@@H](CCC(=O)O)C(=O)N[C@@H](Cc1c[nH]c2ccccc12)C(=O)N[C@@H](CC(C)C)C(=O)N[C@@H](CCCNC(=N)N)C(=O)N[C@@H](CCCCN)CC(=O)N[C@@H](CCCCN)C(=O)N[C@@H](CC(C)C)C(=O)N[C@@H](CCC(N)=O)C(=O)N[C@@H](CC(=O)O)CC(=O)N[C@H](C(=O)N[C@@H](Cc1c[nH]cn1)C(=O)N[C@@H](CC(N)=O)C(=O)N[C@H](CC(N)=O)Cc1ccccc1)C(C)C)C(C)C` [D3]: the “cAMP (hPTHR-1) Max” value on WT human PTHR-1 (Table 1) came to 1.04. The results for the Max at WT human PTHR-1 (GP-2.3 cells) and at WT rat PTHR-1 were 226 ± 15 luminescence counts per second × 10^−3 and 65 ± 62 luminescence counts per second × 10−3, respectively. Moreover, the “agonist activity at hPTHR-1 (cAMP response), in words” value at WT human PTHR-1 is “full agonists of hPTHR-1”. Besides, the “affinity for the R^0 state of hPTHR-1, in words” value on R^0 form of human PTHR-1 (compared with PTH(1-34)) was “matches PTH(1-34)”.
As to “XVUEXQXMHQ^hRAKWLNSMRRVEWLRKKLQDVHNF.-NH2 [M-X1,5,7-D6]”, the “Fold PTH” value on PTHR (Table 10) was 9.7.
On to “AVAEIQXMHQ^hRAKXLNSXRRVEWLRZKLQDVHNX-NH2 [M-cycD6]”, for which the “Fold PTH” value at PTHR (Table 10) worked out at 4.0.
Take “XVSEXQXMHNLGKWLNSMERVEWLRKKLQDVHNF-NH2 [D6_ACPC(1,5,7)]”: the “Fold PTH” value at PTHR (Table 9) was 2,045.
For `CC[C@H](C)[C@H](NC(=O)[C@H](CCC(=O)O)NC(=O)[C@H](C)NC(=O)[C@@H](NC(=O)[C@H](C)N)C(C)C)C(=O)N[C@@H](CCC(N)=O)C(=O)NC1CCCC1C(=O)N[C@@H](CCSC)C(=O)N[C@@H](Cc1c[nH]cn1)C(=O)N[C@@H](CCC(N)=O)C(=O)N[C@@H](CCCCNC(=N)N)C(=O)N[C@@H](C)C(=O)N[C@@H](CCCCN)C(=O)N[C@H](CC(=O)N[C@@H](CC(C)C)C(=O)N[C@@H](CC(N)=O)C(=O)N[C@@H](CO)C(=O)N[C@@H](CCSC)CC(=O)N[C@@H](CCCNC(=N)N)C(=O)N[C@@H](CCCNC(=N)N)C(=O)N[C@H](C(=O)N[C@@H](CCC(=O)O)CC(=O)N[C@@H](Cc1c[nH]c2ccccc12)C(=O)N[C@@H](CC(C)C)C(=O)N[C@@H](CCCNC(=N)N)C(=O)N[C@@H](CCCCN)CC(=O)N[C@@H](CCCCN)C(=O)N[C@@H](CC(C)C)C(=O)N[C@@H](CCC(N)=O)C(=O)N[C@@H](CC(=O)O)CC(=O)N[C@H](C(=O)N[C@@H](Cc1c[nH]cn1)C(=O)N[C@@H](CC(N)=O)C(=O)N[C@H](CC(N)=O)Cc1ccccc1)C(C)C)C(C)C)Cc1c[nH]c2ccccc12` (stereo partly drawn) [M-D6] (H-AVAEIQ[X14]MHQ[hArg]AK[β3hW]LNS[β3hM]RRV[β3hE]WLR[β3hK]KLQ[β3hD]VHN[β3hF]-NH2; N-terminus assumed), on PTHR (Table 10), the “Fold PTH” value is 5.4.
The same measure, in the same setting: as for “AVAEIQXMHQ^hRAKXLNSXRRVZWLRZKLQXVHNX-NH2 [M-FcycD6]”, the figure is 6.3.

The values are drawn from patent US10501518B2 (priority 2013, dated 2019).
